Test systems include OVCAR-4 ovarian; SN12C renal; MALME-3M melanoma; SK-MEL-5 melanoma; COLO 205 colon; KM12 colon; T-47D breast; OVCAR-8 ovarian; K-562 leukemia; PC-3 prostate; TK-10 renal; SK-MEL-28 melanoma; BT-549 breast; A549 NSCLC; NCI/ADR-RES ovarian; SR leukemia; HCT-116 colon; MDA-N.
Experiment in all cases: DTP human tumour cell line panel, 48 h

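Five compound concentrations were applied to cells in 96-well plates for 48 hours; endpoints were derived by simple linear interpolation of the resulting dose-response curve. Here, GI50 denotes the concentration required for 50% inhibition of growth. TGI is the concentration that stops growth completely.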

Nine compounds from PubChem BioAssay (NCI) can be followed below.

Regarding `Brc1ccc2[nH]cc([C@@H]3CN[C@@H](c4c[nH]c5ccc(Br)cc45)CN3)c2c1`, the TGI (commonly the concentration at which net growth stops) amounted to 17.7 µM in the assay with OVCAR-4 ovarian; 17.8 µM in the assay with SN12C renal; 29.6 µM with MALME-3M melanoma; 20.8 µM in the assay with SK-MEL-5 melanoma; 3.69 µM in the assay with COLO 205 colon; 7.06 µM with KM12 colon. In addition, the TGI stood at 29.2 µM in the assay on T-47D breast; 13.8 µM in the assay with OVCAR-8 ovarian; 3.74 µM in the assay with K-562 leukemia; 14.7 µM in the assay with PC-3 prostate; 16.4 µM in the assay with TK-10 renal; 27.8 µM in the assay on SK-MEL-28 melanoma. Moreover, the TGI in the assay on BT-549 breast stood at 30.8 µM; with A549 NSCLC, 19.4 µM; with NCI/ADR-RES ovarian, 25.2 µM; with SR leukemia, 4.17 µM; with HCT-116 colon it was 9.2 µM.
Consider `Cc1c(/C=N/NC(=S)Nc2ccc([N+](=O)[O-])cc2)c(=O)n(-c2ccccc2)n1C`, for which the TGI is 34.7 µM in the assay on OVCAR-4 ovarian; above 100 µM with SK-MEL-5 melanoma; above 100 µM in the assay on COLO 205 colon; 51.1 µM in the assay on KM12 colon; 31.6 µM in the assay on OVCAR-8 ovarian; above 100 µM in the assay with K-562 leukemia. For the same compound, the TGI in the assay with PC-3 prostate was 76.8 µM; in the assay with TK-10 renal, 26.3 µM; with SK-MEL-28 melanoma, above 100 µM; in the assay with BT-549 breast it was 36.5 µM; with NCI/ADR-RES ovarian, 32.1 µM; in the assay on SR leukemia, above 100 µM. This compound showed a TGI in the assay on HCT-116 colon of 52.3 µM.
In the case of `COc1ccc(-c2cc(=O)c3cc4c(cc3[nH]2)OCO4)c(OC)c1`, the TGI with OVCAR-4 ovarian was above 100 µM; in the assay with SN12C renal, above 100 µM; with MALME-3M melanoma it was 77.2 µM; with SK-MEL-5 melanoma it was 80.1 µM; with COLO 205 colon it was above 100 µM; in the assay on KM12 colon, above 100 µM. Besides, the TGI in the assay on OVCAR-8 ovarian was above 100 µM; in the assay with K-562 leukemia it was above 100 µM; in the assay with TK-10 renal, above 100 µM; in the assay on SK-MEL-28 melanoma it was above 100 µM; in the assay on A549 NSCLC, above 100 µM; with SR leukemia, 74.2 µM. In the assay with HCT-116 colon, this compound returned a TGI above 100 µM. In the assay on HCT-116 colon, the GI50 (in general, the concentration giving 50% growth inhibition) was 40.7 µM.
As to `CC(=O)c1cc2sc3ccccc3c2[nH]1`, the TGI in the assay on OVCAR-4 ovarian, in the assay on MDA-N, in the assay on SN12C renal, in the assay with MALME-3M melanoma, with SK-MEL-5 melanoma and in the assay on COLO 205 colon was above 100 µM in each case. Moreover, the TGI in the assay on KM12 colon, in the assay with T-47D breast, in the assay with OVCAR-8 ovarian, in the assay with K-562 leukemia, in the assay with PC-3 prostate and with TK-10 renal was above 100 µM in each case. Further, the TGI in the assay on SK-MEL-28 melanoma, in the assay on A549 NSCLC, in the assay on NCI/ADR-RES ovarian and in the assay with HCT-116 colon was above 100 µM throughout.
On to `Nc1ccc(N=Nc2ccc(-c3ccc(N=Nc4c(S(=O)(=O)O)cc5cc(S(=O)(=O)O)c(N=Nc6ccc([N+](=O)[O-])cc6)c(N)c5c4O)cc3)cc2)c2cc(S(=O)(=O)O)ccc12`, for which the TGI in the assay with OVCAR-4 ovarian, with SN12C renal, with MALME-3M melanoma, in the assay with SK-MEL-5 melanoma, in the assay with COLO 205 colon and in the assay on KM12 colon was above 100 µM throughout. The TGI in the assay on OVCAR-8 ovarian, in the assay with K-562 leukemia, in the assay with TK-10 renal, in the assay with SK-MEL-28 melanoma, in the assay on A549 NSCLC and with SR leukemia was above 100 µM throughout. In the assay with HCT-116 colon, this compound came in with a TGI above 100 µM.
On to `CC1=N/C(=C\c2ccc(N)cc2)C(=O)N1Nc1nnc(NN2C(=O)/C(=C/c3ccc(N)cc3)N=C2C)c2ccccc12`, for which the TGI in the assay with OVCAR-4 ovarian was above 100 µM; with SN12C renal it was above 100 µM; in the assay on SK-MEL-5 melanoma it was above 100 µM; in the assay with COLO 205 colon, above 100 µM; with KM12 colon, 81.5 µM; in the assay with OVCAR-8 ovarian, above 100 µM. The total growth inhibition concentration (TGI) with K-562 leukemia, with SK-MEL-28 melanoma, in the assay on A549 NSCLC, in the assay on SR leukemia and in the assay on HCT-116 colon was above 100 µM each time.
Turning to `N#Cc1nc(/C=C/c2cccs2)oc1N`, the TGI in the assay with MDA-N, in the assay with SN12C renal, in the assay with SK-MEL-5 melanoma, with KM12 colon, in the assay with OVCAR-8 ovarian and in the assay on K-562 leukemia was above 100 µM throughout. The TGI was above 100 µM in the assay on PC-3 prostate; above 100 µM with TK-10 renal; above 100 µM in the assay with SK-MEL-28 melanoma; above 100 µM in the assay with A549 NSCLC; 74 µM with SR leukemia; above 100 µM in the assay with HCT-116 colon.
For the compound `CC(C)C1=CC23CCC4C(C)(C(=O)O)CCCC4(C)C2CC1C1C(=O)N(c2ccc(N4C(=O)C5C6CC7C8(C)CCCC(C)(C(=O)O)C8CCC7(C=C6C(C)C)C5C4=O)cc2)C(=O)C13` (centres undefined), the TGI with OVCAR-4 ovarian was found to be 25.1 µM; in the assay with MDA-N it was 16.1 µM; with SN12C renal it was 17.5 µM; with MALME-3M melanoma, 27.9 µM; with SK-MEL-5 melanoma it was 19.2 µM; in the assay on COLO 205 colon it was 10.8 µM. Further, the concentration for total growth inhibition (TGI) in the assay with KM12 colon was 15.2 µM; in the assay with T-47D breast, 26.8 µM; with OVCAR-8 ovarian, 16.5 µM; in the assay on K-562 leukemia, above 100 µM; in the assay with PC-3 prostate it was 14.1 µM; with TK-10 renal, 29.9 µM. The TGI came out at 16.7 µM with SK-MEL-28 melanoma, 43.3 µM in the assay with A549 NSCLC, 15.9 µM in the assay on SR leukemia and 11.8 µM with HCT-116 colon.
Consider `N[C@@H]1c2c(Br)sc(Br)c2C(=O)[C@H]1Br`, for which the concentration for total growth inhibition (TGI) in the assay with OVCAR-4 ovarian is 89.5 µM; with SN12C renal, 58.9 µM; in the assay on MALME-3M melanoma it was 57.4 µM; with SK-MEL-5 melanoma it was above 100 µM; in the assay with COLO 205 colon, above 68 µM; with KM12 colon, above 61.5 µM. Moreover, the TGI is 84 µM with T-47D breast; 48.4 µM in the assay with OVCAR-8 ovarian; above 67 µM in the assay on K-562 leukemia; above 84.8 µM with PC-3 prostate; above 100 µM in the assay on TK-10 renal; 54.8 µM in the assay with SK-MEL-28 melanoma. Also, the TGI in the assay on BT-549 breast was 43.1 µM; in the assay on A549 NSCLC, above 100 µM; in the assay with NCI/ADR-RES ovarian, 53.8 µM; with SR leukemia it was above 64.2 µM; with HCT-116 colon, 39.9 µM.
